row,Compound,melting point
1,O=C(Nc1cccc(C(F)(F)F)c1)c1ccccc1C(c1ccc(O)cc1)c1ccc(O)cc1,198 to 200 °C
2,COc1nc(Cl)ccc1C=O,62 to 64 °C
3,CCN(CC)C(=O)c1c(C(C)(O)c2cc3cnccc3n2S(=O)(=O)c2ccccc2)ccnc1OC (centres undefined),236 °C
4,CCc1nc(OC)c(NC(=O)N2CCN(c3cc(F)cc(F)c3)CC2)cc1C(=O)NC(C)C(=O)Nc1cc(CO)cc(Nc2c3ccccc3nc3ccccc23)c1 (centres undefined),202 to 204 °C
5,O=C(O)c1ccccc1-c1nc(-c2cc(C(F)(F)F)cc(C(F)(F)F)c2)no1,178 to 182 °C
6,O=C(O)c1cccc2cc3ccccc3nc12,202 to 204 °C
7,CN(C)Cc1ccc(CSCCN=CNS(=O)(=O)c2ccc(Cl)cc2)o1,93 to 96 °C
8,N#Cc1ccc(OCCCCCOc2ccc(-c3cc4cc(C#N)ccc4o3)cc2)cc1,163 to 166 °C
9,CCCCCCN1CCC(n2nc(-c3c(-c4ccccc4)nn4ccccc34)ccc2=O)CC1,106 °C
10,CN(C)Cc1c(-c2ccccc2)nc2c(C(=O)NC(C#N)c3cccc(F)c3)cccn12 (centres undefined),123 to 124 °C
11,N#CCCCCCCCCn1nnc(-c2ccccc2)c1-c1ccccc1,77 to 78 °C
12,c1cc2ccc3occc3c2[nH]1,141 to 144 °C
13,CCOC(=O)C(=O)Nc1ccc(C#N)cc1[N+](=O)[O-],152 °C
14,CC(C)CN1CCN(C(=O)c2ccc(OCc3ccccc3)cc2)CC1,77.6 to 78.4 °C
15,CCOC(=O)c1cc(-c2ccc(Cl)cc2)nc2ccnn12,160 to 161 °C
16,OCc1ccc(-c2nn(Cc3ccccc3)c3ccccc23)o1,108 to 109 °C
17,O=C1Nc2cc(F)ccc2C1c1ncnc2c1cnn2C1CCCC1 (centres undefined),230 to 233 °C
18,CCOc1ccc(-c2cc(C(F)(F)F)n3cnc(-c4ccncc4)c3n2)cc1C(F)(F)F,244 °C
19,CC(=O)OCC(CCn1cnc2c(=O)[nH]c(N)nc21)COC(C)=O,202 to 205 °C
20,N#Cc1ccc(Nc2cc(Cc3c(Cl)cccc3Cl)nc(NCCCN3CCCC3=O)n2)cc1,104 to 114 °C
21,CC(c1ccc(-c2ccccc2)c(F)c1)c1nc(CN2CCOCC2)no1 (centres undefined),91.5 to 92.5 °C
22,CC(C)(C#N)c1cc(Cn2cncn2)cc(C(C)(C)C#N)c1,81 to 82 °C
23,COc1c(N2CCC(CN)C2)c(F)cc2c(=O)c(C(=O)O)cn(C3CC3)c12 (centres undefined),198 to 200 °C
24,CCCNC(=O)C(C)Cc1ccc2c(CCC)cn(Cc3ccc(C(=O)O)cc3OC)c2c1 (centres undefined),90 to 98 °C
25,CC1(C)CN(CCO)C(=O)C(C)(C)N1,91 to 93 °C

row,Compound,melting point
1,CN(Cc1ccc(NC(=O)C2=Cc3cc(-c4cccc(Cl)c4)ccc3S(=O)(=O)CC2)cc1)C1CCOCC1,221 to 224 °C
2,COc1cc(C(F)(F)F)cc(Cl)c1Oc1ccc2ccc(O)cc2c1,130 °C
3,COC(=O)c1nc(-c2ccc(C)c(OC)c2F)cc(N)c1Cl,95 to 96 °C
4,O=C(c1cc(O)c(O)c([N+](=O)[O-])c1)c1ccccc1F,169 to 171 °C
5,C=C1C(=C)C2OC1C1=C2Cc2c(cccc2OC)C1 (centres undefined),145 to 147 °C
6,CC(C)(C)OC(=O)N1CCn2ccc(C#N)c2C1,97 °C
7,COc1cc(C#N)ccc1C(Br)Br,78 to 79 °C
8,COc1ccc(C2=NN(c3ccccc3)C(c3ccc([N+](=O)[O-])cc3)C2)cc1 (centres undefined),168 to 173 °C
9,CC1=C(C(=O)OC(C)C)[C@@H](c2cccc(Cl)c2)NC(=O)N1C(N)=O,131 to 133 °C
10,CC(=O)N(C=CC(=Nc1ccccc1)Oc1ccccc1)c1ccccc1,120 °C
11,CCCCCCCCC#CCCCCCCCC(=O)Nc1nc(CC(=O)O)cs1,95.5 to 96.5 °C
12,COc1ccccc1C(Cn1ccnc1)S(=O)c1ccc(C(=O)O)cc1 (centres undefined),157 to 159 °C
13,CCCSc1cc(C(=O)O)cc(S(N)(=O)=O)c1-c1ccccc1,85 to 87 °C
14,O=C(O)c1ccc2c(oc3ccccc32)c1C(=O)O,260 to 262 °C
15,CN1CS(=Nc2ccc3[nH]nnc3c2)c2ccccc21 (centres undefined),240 °C
16,CC(C)(C)NCC(O)COc1ccc(-c2csnn2)cc1 (centres undefined),124 to 125 °C
17,Cc1nc(-c2ccc(C(F)(F)F)cc2)oc1COc1ccc(OCc2nn[nH]n2)cc1,156 °C
18,Cc1cccc(NC(=O)NC2N=C(C3CCCC3)c3ccccc3N(Cc3ncccc3C)C2=O)c1 (racemic),198 to 199 °C
19,Nc1cc([N+](=O)[O-])c(N)cc1SCC(O)CO (centres undefined),164 °C
20,C#CCC1(O)CCN(c2ccc(N3C[C@H](CNC(C)=O)OC3=O)cc2F)CC1,166 to 167 °C
21,O=C(O)CC1C(CCl)=CCC1O (centres undefined),33 to 34 °C
22,COC(=O)c1ccc(CSc2nc3ccccc3[nH]2)cc1,229 to 231 °C
23,NC(=O)Cc1cccc(OCCN2CCC(Cc3ccccc3)CC2)c1,100 to 101 °C
24,CNC(=O)ON=C1COCCS1,105 to 106 °C
25,COc1cc2c(cc1OC)-c1cc3cc(O)ccc3n1C2=O,> 260 °C

row,Compound,melting point
1,CC(=O)Cc1ccc(CC2SC(=N)NC2=O)cc1 (centres undefined),196 to 198 °C
2,CCN1C(=O)C(=O)C(C)=C(C#N)C1=O,159 to 160 °C
3,CCOc1nn(-c2ccc(C(F)(F)F)cn2)cc1CCCCOc1cc(CCC(=O)O)n(-c2ccccc2)n1,138 to 139 °C
4,CC(C)c1cc(O)n(C)n1,120 to 122 °C
5,O=C(c1ccncc1)c1cc(-c2ccccc2)c(N2CCOCC2)s1,149 °C
6,COc1ccc(C(O)C(C)=CC(=O)O)c(C(C)C)c1OC (centres undefined),154 to 155 °C
7,O=C(Cc1ccc(Cl)c([N+](=O)[O-])c1)N[C@H]1C[C@H](C(=O)O)Nc2cc(Cl)cc(Cl)c21 (relative stereo),233 to 235 °C
8,CCOC(=O)c1cc(-c2nn3c(c2Cl)CCCC3)c(F)cc1Cl,72 to 73 °C
9,O=C(O)C=c1sc2n(c1=O)Cc1ccccc1N=2,263 to 264 °C
10,Cc1cc2c(c(C)c1Br)C(c1ccc(C(C)C)cc1)CO2 (centres undefined),90 to 91 °C
11,O=C([C@@H]1CCCN1C(=O)OCc1ccccc1)N1CCOCC1,139 to 140 °C
12,CCOC(=O)c1c(-c2cnccn2)ssc1=S,125 °C
13,CC(C)(C)OC(=O)NCc1cccc(OCCC2Oc3ccccc3N(Cc3ccccc3Cl)C2=O)c1 (centres undefined),115 to 116 °C
14,COc1cc(C(=O)NS(=O)(=O)c2ccccc2)ccc1Cn1ncc2ccc(NC(=O)CC3CCCC3)cc21,167 to 169 °C
15,c1cc(Nc2nncc3ccccc23)cc(-n2ccnc2)c1,135 to 137 °C
16,O=CC(=O)c1ccc(Oc2cccc(C(F)(F)F)c2)cc1,73 to 80 °C
17,CN1CCN(CCCCCNc2ncc3cc(-c4c(Cl)cccc4Cl)c(=O)n(C)c3n2)CC1,110 to 112 °C
18,c1ccc(C(c2ccccc2)N2CCN(CCCOc3ccc4nncn4n3)CC2)cc1,132 to 134 °C
19,CCOCCc1ccc(OCCN(C(=O)n2cncn2)c2ncnc3sc(CC)cc23)c(C)c1,129 to 131 °C
20,Cc1nc2cnccc2n1-c1ccc2c(c1)CC(C(=O)O)C2 (centres undefined),264 to 267 °C
21,CCCNC(=O)Nc1c(C(=O)OCC)cnn1-c1ccccc1,117 to 118 °C
22,CCOC(=O)C(C)c1cc(C(C)(C)C)c(O)c(C(C)(C)C)c1 (centres undefined),54 to 56 °C
23,Cn1ncnc1COc1cc(N)c2cnn(-c3ccccc3)c2n1,164 to 166 °C
24,CCCCC1=CC(=C(Br)Br)N(Cc2ccccc2)C1=O,56 to 58 °C
25,C=CCn1c(NCC(F)(F)F)nc(N2CCc3ccccc3CC2)c(C#N)c1=O,186 to 191 °C

row,Compound,melting point
1,CCN1CC(OCC2(C)CC2)(C(F)(F)F)c2cc(Cl)ccc2NC1=O (centres undefined),171 to 172 °C
2,Cn1nnnc1S(=O)(=O)CCCCS(=O)(=O)c1nnnn1C,192 to 194 °C
3,CCOC(=O)NN(C)c1cc(C)c(-c2cccc([N+](=O)[O-])c2)nn1,142 to 144 °C
4,CC(C)COC[C@H](CC(C)C)NC(=O)[C@H]1O[C@@H]1C(=O)O,63 °C
5,CN(C(=O)CN1C(=O)C(NC(=O)Nc2cccc(N)c2)N=C(CN2CCOCC2)c2ccccc21)c1ccccc1 (centres undefined),158 to 160 °C
6,COc1cc(Nc2nccc(-c3ccc([N+](=O)[O-])cc3)n2)cc(OC)c1OC,196 °C
7,CN(C)C(=O)Cc1ccc(CNC(=O)[C@@H](CCCNC(N)=N[N+](=O)[O-])NC(=O)C(c2ccccc2)c2ccccc2)cc1,198 to 200 °C
8,COc1ccccc1C(Cc1ccccc1)(Cn1cncn1)C(=O)O (centres undefined),250 to 252 °C
9,CCCC1=C(C(=O)O)C(CC)n2ncc(C(=O)OCC)c2N1 (centres undefined),160 to 161 °C
10,O=C(NN1CCCCC1)c1nn(-c2ccc(Cl)cc2Cl)c(-c2ccc(Cl)cc2)c1COCCO,194 °C
11,O=[N+]([O-])c1cc(Cl)cc(CO)c1,74 to 75 °C
12,COCn1ccnc1C(O)(c1ccc(Cl)cc1Cl)c1ccc(Cl)cc1Cl,146 °C
13,COc1cc2c3c(n(C)c(=O)c2cc1OC)-c1cc2c(cc1C3=CCCCI)OCO2,173 to 174 °C
14,Cc1ccccc1CN(CC(=O)OC(C)(C)C)S(=O)(=O)c1ccc2c(Cl)cnc(Cl)c2c1,96 to 98 °C
15,Nc1cccc(-n2c(=O)c3c(CCc4ccncc4)n[nH]c3c3cccnc32)c1,261 to 263 °C
16,O=C(NCc1cccnc1)c1cc2ccnc(Cl)c2[nH]1,189 to 191 °C
17,NC(=S)c1ccccc1Nc1cccc(C(F)(F)F)c1,106 to 108 °C
18,COc1ccc(-n2cccc2-c2ccc(S(N)(=O)=O)cc2)cc1,112 to 114 °C
19,COC(=O)c1ccc2cc(OCc3ccccc3)ccc2c1,148 to 149 °C
20,Cc1c(NC(=O)c2ccc(-c3ccc(F)cc3)cc2)ccc2cc(CN3CCCC3CC(C)C)cnc12 (centres undefined),193 to 196 °C
21,Fc1ccc(-c2ccco2)cc1,84 to 86 °C
22,N=C(N)NC(=O)c1cn(-c2ccnc3ccccc23)c2ncccc12,164 °C
23,C[C@@H]1Cc2cc3c(cc2C(c2ccc([N+](=O)[O-])c(Cl)c2)=NN1)OCO3,165 to 170 °C
24,N#Cc1cc(C#N)cc(Oc2c(C3CC3)nn(CCO)c2C2CC2)c1,115 to 117 °C
